Test results as given in ChEMBL document CHEMBL1201862, “PubChem BioAssay data set” (2004).
Active and inactive are the calls of the source.

How the values were obtained:
[1] = StAR promoter reporter inhibition counter-screen, dose response, counter-screen for LRH-1 inverse agonist project, cell-based, luminescence, luciferase reporter (AID 651969); type: functional
[2] = biological target: Nuclear receptor subfamily 5 group A member 2 (Homo sapiens, UniProt O00482); type: functional, cell-based;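 further: HEK293T cells transfected with LRH-1 and a StAR promoter luciferase reporter; potency for inhibitors that lower LRH-1 driven reporter light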
Steroidogenic factor 1 = Steroidogenic factor 1 (Homo sapiens, UniProt Q13285); experiment: Counterscreen for inverse agonists of the liver receptor homolog-1 (LRH-1; NR5A2): Luminescence-based cell-based high throughput dose response assay to identify inverse agonists of the Steroidogenic Factor 1 Nuclear Receptor (SF1; NR5A1).; type: functional
[3] = biological target: T1, Low molecular weight phosphotyrosine protein phosphatase (Homo sapiens, UniProt P24666); type: functional; conditions: read-out: IC50_Mean
T1 sequence (P24666 whole entry): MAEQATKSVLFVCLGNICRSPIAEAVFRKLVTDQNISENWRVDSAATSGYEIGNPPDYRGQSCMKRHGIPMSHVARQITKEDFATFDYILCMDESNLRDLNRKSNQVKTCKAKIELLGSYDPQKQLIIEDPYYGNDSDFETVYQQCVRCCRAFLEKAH

[4] = biological target: T2, Tyrosine-protein phosphatase non-receptor type 22 (Homo sapiens, UniProt Q9Y2R2); experiment: LYP phosphatase inhibition for selectivity, dose response, selectivity assay for LMPTP inhibitor project, biochemical, fluorescence, LYP catalytic domain (AID 652006); type: functional; conditions: read-out: IC50_Mean
T2 sequence (Q9Y2R2 whole entry): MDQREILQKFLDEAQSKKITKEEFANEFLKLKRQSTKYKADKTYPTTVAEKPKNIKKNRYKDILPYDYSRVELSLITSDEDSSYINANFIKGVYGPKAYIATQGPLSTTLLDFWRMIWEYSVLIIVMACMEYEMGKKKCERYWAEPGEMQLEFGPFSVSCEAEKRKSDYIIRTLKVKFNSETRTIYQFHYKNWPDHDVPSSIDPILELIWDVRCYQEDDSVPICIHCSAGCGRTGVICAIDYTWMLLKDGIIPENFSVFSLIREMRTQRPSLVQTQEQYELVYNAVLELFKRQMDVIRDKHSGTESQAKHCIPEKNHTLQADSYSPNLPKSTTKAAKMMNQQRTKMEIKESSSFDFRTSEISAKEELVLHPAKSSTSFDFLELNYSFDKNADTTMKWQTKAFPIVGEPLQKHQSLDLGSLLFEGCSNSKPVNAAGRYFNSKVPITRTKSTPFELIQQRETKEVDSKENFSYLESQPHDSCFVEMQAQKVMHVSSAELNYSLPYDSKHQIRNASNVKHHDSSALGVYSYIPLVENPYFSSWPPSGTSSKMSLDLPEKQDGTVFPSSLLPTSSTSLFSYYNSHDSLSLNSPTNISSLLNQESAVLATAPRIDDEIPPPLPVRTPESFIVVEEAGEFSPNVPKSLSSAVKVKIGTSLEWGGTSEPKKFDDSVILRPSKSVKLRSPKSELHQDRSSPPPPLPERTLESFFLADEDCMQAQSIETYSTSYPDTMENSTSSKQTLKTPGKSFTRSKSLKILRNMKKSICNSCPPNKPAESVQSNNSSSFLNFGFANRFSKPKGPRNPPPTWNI

[5] = biological target: T1, Low molecular weight phosphotyrosine protein phosphatase; type: functional; conditions: read-out: IC50_Mean; remark: listed apart in the source
[6] = biological target: T3, Methionyl-tRNA synthetase, putative (Trypanosoma brucei brucei, UniProt Q38C91); type: functional, Trypanosoma brucei brucei strain 927/4 GUTat10.1
[7] = Counterscreen for inhibitors of Trypanosoma brucei methionyl tRNA synthetase (MetRS): Luminescence-based cell-based high throughput dose response assay to identify compounds that are cytotoxic to Jurkat human T lymphocyte cells.; type: functional
INS1 = experiment: beta cell apoptosis inhibitors, cytokine rescue, dose response, luminescence, retest (AID 449756); type: functional, cell-based; conditions: Rattus norvegicus;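 further: cell death triggered by IL-1 beta plus TNF-alpha plus IFN-gamma mixture; protective hits raise ATP signal compared with cytokine alone wells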
[8] = biological target: T3, Methionyl-tRNA synthetase, putative; type: functional, Trypanosoma brucei brucei strain 927/4 GUTat10.1; remark: listed apart in the source
[9] = biological target: Neurotensin receptor type 1 (Homo sapiens, UniProt P30989); type: functional;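 further: Image-based confirmatory dose-response assay measuring agonist activity at NTR1; NTR1-expressing U2OS osteosarcoma cells imaged for beta-arrestin GFP spot formation; agonist potency where compounds increase beta-arrestin recruitment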
[10] = Fluorescence-based cell-based high throughput dose response assay for inhibitors of the interaction of nucleotide-binding oligomerization domain containing 2 (NOD2) and the receptor-interacting serine-threonine kinase 2 (RIPK2).; type: functional; conditions: Homo sapiens
[11] = biological target: T4, Heat shock factor protein 1 (Mus musculus, UniProt P38532); experiment: inhibition of MG132-induced HSE-luciferase signal, confirmation, cell-based, NIH3T3, luminescence, dose retest (AID 2382); type: functional;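 further: NIH3T3 fibroblasts with HSF1-driven luciferase reporter stressed by proteasome inhibitor MG132; luminescence from HSF1-driven luciferase expression after 8 hours of MG132 stress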
T4 sequence (P38532 whole entry): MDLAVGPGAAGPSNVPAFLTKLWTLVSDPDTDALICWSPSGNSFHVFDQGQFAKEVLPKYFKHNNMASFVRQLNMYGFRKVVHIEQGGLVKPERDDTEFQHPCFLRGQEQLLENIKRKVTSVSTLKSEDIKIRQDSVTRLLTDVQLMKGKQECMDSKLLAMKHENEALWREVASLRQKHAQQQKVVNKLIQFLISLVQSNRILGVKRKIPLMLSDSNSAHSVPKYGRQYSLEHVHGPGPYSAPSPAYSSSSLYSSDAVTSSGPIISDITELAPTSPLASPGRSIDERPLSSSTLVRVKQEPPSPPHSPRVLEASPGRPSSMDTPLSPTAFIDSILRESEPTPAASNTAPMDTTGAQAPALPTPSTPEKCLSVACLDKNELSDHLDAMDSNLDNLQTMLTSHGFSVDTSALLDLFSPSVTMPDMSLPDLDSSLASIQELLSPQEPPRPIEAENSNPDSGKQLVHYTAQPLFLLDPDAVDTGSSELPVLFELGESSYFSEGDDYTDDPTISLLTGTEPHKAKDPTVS

Protein RecA = biological target: T5, Protein RecA (Mycobacterium tuberculosis, UniProt P9WHJ3); experiment: Fluorescence Cell-Free Homogeneous Dose Retest to Identify Inhibitors of RecA-Intein Splicing Activity. [Related pubchem assays (depositor defined):AID2097, AID2223, AID489010, AID492950]; type: functional
T5 sequence (P9WHJ3 whole entry): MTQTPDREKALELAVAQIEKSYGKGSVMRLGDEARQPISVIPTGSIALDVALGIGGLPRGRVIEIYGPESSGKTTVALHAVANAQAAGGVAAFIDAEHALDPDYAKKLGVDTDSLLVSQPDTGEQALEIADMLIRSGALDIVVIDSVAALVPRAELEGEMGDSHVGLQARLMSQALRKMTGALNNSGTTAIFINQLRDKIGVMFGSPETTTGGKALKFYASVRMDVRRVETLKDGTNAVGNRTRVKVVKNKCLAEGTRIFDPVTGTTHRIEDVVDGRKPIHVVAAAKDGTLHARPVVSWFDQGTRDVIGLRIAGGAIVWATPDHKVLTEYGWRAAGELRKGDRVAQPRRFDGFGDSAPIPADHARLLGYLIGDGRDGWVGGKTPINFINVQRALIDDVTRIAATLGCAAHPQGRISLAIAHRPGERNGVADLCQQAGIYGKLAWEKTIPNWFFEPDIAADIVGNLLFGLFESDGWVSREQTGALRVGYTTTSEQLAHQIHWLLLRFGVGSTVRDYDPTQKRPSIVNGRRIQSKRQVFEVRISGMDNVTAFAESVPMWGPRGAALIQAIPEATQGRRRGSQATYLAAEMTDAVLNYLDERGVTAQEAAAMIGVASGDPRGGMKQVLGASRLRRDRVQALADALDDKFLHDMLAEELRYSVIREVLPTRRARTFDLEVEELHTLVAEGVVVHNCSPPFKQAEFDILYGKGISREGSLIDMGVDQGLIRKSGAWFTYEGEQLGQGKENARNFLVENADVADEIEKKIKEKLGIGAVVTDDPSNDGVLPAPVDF

Beta Lactamase = Beta Lactamase (Pseudomonas aeruginosa, UniProt Q932Y6); experiment: beta-lactamase reporter inhibitor potency, dose response, artefact control for NOD2-RIPK2 interaction inhibitor project, BLA reporter cells, FRET fluorescence (AID 651552); type: functional, cell-based
[12] = biological target: T6, Replicative DNA helicase DnaB (Mycobacterium tuberculosis, UniProt P9WMR3); experiment: DnaB intein splicing inhibitors, dose response, biochemical, cell-free fluorescence (AID 449749); type: functional
T6 sequence (P9WMR3 whole entry): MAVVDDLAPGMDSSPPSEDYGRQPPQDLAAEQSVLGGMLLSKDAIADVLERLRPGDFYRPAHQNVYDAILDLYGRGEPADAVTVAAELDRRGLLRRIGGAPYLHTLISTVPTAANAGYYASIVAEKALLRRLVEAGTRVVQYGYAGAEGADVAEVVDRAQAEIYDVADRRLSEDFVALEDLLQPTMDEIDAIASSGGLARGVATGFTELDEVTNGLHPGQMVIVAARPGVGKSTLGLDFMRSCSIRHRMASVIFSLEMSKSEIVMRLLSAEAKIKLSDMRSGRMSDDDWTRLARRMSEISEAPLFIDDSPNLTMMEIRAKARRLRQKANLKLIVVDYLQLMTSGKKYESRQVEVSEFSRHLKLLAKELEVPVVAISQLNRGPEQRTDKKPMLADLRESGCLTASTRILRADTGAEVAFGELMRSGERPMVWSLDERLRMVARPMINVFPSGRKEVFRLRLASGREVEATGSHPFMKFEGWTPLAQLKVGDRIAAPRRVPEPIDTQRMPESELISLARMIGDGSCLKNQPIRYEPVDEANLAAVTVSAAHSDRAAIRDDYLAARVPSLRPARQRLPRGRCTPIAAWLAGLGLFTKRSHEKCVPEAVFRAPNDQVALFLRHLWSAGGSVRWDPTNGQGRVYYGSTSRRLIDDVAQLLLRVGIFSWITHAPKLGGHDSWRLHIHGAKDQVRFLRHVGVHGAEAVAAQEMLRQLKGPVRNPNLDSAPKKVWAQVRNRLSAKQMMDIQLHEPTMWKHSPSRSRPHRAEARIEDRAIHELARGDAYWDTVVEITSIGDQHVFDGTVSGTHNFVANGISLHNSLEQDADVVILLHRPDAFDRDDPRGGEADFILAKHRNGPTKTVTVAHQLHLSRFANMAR

[13] = biological target: T7, Delta-type opioid receptor (Homo sapiens, UniProt P41143); experiment: HTS Image-Based Screen for Agonists of the DOR Receptor. [Related pubchem assays (depositor defined):AID1777, AID1786, AID2133]; type: functional
[14] = biological target: T8, Kappa-type opioid receptor (Homo sapiens, UniProt P41145); type: functional
Beta-galactosidase = Beta-galactosidase (Escherichia coli, UniProt Q8VNN2); type: functional
[15] = biological target: T8, Kappa-type opioid receptor; type: functional; remark: listed apart in the source
[16] = HeLa cell cytotoxicity, dose response, cytotoxicity control for MgcRacGAP inhibitor project (AID 624300); type: functional
[17] = biological target: T9, Rac GTPase-activating protein 1 (Homo sapiens, UniProt Q9H0H5); experiment: MgcRacGAP GTPase-activating activity inhibitors, confirmation, biochemical, ADP Hunter fluorescence, primary and confirmatory (AID 624330); type: functional
T9 sequence (Q9H0H5 whole entry): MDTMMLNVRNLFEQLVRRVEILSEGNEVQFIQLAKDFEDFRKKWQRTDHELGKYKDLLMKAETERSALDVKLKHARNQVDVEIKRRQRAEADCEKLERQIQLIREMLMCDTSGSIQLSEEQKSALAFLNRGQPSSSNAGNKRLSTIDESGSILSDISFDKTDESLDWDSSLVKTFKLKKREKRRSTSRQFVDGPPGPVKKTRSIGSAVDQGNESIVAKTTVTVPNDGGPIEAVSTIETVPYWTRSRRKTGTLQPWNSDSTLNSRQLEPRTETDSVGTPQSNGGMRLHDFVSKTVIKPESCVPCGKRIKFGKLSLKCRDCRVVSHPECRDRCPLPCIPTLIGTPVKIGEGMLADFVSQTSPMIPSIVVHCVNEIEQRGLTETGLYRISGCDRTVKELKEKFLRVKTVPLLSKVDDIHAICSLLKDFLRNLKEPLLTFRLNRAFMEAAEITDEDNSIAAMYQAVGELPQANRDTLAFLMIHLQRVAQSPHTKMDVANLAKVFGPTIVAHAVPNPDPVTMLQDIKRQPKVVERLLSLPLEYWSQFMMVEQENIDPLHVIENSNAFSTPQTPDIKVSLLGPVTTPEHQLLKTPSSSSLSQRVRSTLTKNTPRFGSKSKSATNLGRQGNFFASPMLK

Mu-type opioid receptor = Mu-type opioid receptor (Homo sapiens, UniProt P35372); experiment: HTS Image-Based Screen for Agonists of the MOR Receptor. [Related pubchem assays (depositor defined):AID1777, AID1785, AID1786, AID2133]; type: functional;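 further: imaging of beta-arrestin GFP recruitment into spots after receptor activation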
[18] = biological target: T7, Delta-type opioid receptor; experiment: HTS Image-Based Screen for Antagonists of the DOR Receptor. [Related pubchem assays (depositor defined):AID1777, AID1785, AID1786, AID2133]; type: functional
[19] = NIH/3T3 fibroblast cytotoxicity, dose response, cytotoxicity control for T. cruzi growth inhibitor project, cell-based, cherry-pick samples, set 2 (AID 651817); type: functional; conditions: NIH3T3

T7 sequence (P41143 whole entry): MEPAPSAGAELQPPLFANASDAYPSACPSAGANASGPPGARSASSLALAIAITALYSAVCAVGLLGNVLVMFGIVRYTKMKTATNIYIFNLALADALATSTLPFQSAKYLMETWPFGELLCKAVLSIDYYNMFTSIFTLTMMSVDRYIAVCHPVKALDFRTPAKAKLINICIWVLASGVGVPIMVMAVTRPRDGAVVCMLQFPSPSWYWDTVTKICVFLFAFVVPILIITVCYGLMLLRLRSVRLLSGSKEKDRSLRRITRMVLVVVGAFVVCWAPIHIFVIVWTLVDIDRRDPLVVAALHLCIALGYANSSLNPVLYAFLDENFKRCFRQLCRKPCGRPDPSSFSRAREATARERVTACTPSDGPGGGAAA
T8 sequence (P41145 whole entry): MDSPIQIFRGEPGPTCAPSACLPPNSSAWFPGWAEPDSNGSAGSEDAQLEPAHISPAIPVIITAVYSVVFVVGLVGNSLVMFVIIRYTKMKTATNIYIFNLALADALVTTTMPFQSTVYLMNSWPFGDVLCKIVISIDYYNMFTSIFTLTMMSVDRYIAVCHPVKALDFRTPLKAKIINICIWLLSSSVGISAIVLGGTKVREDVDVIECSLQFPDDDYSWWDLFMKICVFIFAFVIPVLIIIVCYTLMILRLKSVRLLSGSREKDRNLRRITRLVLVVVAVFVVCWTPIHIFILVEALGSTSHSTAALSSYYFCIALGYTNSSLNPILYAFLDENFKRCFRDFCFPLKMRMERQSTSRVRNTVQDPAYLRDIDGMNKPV
T3 sequence (Q38C91 whole entry): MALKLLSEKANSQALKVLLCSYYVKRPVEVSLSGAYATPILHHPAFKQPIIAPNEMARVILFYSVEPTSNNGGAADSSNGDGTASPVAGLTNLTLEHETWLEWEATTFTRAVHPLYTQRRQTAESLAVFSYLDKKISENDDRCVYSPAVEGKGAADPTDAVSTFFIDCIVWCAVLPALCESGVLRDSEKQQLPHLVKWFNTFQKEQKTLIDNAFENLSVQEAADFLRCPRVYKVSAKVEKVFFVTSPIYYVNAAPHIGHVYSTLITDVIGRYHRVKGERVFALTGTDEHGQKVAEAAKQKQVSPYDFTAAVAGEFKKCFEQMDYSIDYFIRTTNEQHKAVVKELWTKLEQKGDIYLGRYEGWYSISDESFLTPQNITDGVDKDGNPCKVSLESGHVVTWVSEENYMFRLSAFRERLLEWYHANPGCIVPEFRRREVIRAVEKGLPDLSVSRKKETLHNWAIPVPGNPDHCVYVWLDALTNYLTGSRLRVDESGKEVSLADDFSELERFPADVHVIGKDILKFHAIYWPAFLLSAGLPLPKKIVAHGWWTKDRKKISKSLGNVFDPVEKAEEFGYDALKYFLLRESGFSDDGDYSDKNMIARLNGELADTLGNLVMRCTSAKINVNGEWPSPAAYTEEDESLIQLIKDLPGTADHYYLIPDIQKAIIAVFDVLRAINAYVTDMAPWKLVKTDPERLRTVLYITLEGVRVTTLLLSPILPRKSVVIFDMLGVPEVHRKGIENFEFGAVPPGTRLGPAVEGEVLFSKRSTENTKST
Sequence of Mu-type opioid receptor (P35372 whole entry): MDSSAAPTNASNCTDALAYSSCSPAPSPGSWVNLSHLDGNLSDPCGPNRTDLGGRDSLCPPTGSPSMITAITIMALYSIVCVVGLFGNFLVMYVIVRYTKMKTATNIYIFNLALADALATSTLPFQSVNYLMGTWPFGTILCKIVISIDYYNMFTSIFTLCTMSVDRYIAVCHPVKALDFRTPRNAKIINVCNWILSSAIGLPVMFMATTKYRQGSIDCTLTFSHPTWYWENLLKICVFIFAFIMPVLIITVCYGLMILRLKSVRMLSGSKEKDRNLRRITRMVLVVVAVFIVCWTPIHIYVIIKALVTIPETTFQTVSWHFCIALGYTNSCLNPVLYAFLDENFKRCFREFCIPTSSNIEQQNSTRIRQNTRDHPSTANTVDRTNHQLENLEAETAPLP
Sequence of Neurotensin receptor type 1 (P30989 whole entry, the tested form may be a part): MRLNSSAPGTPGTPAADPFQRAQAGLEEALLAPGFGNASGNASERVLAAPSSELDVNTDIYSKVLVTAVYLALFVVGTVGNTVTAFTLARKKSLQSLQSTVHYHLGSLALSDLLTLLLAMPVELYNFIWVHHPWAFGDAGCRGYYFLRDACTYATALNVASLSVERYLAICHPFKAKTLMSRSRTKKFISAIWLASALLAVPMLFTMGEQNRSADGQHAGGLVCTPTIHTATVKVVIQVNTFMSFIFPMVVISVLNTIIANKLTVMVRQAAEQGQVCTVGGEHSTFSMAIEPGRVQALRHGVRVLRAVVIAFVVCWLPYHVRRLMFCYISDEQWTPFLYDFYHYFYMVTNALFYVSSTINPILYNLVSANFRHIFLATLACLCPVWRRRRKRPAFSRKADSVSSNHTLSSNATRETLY
Sequence of Beta Lactamase (Q932Y6 whole entry): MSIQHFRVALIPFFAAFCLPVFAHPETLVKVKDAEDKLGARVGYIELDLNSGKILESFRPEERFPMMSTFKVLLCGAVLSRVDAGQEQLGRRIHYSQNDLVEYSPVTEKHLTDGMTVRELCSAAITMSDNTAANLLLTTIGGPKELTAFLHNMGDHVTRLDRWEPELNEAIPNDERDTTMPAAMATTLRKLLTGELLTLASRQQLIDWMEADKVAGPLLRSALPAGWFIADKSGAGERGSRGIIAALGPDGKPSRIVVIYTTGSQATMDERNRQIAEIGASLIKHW
Sequence of Nuclear receptor subfamily 5 group A member 2 (O00482 whole entry): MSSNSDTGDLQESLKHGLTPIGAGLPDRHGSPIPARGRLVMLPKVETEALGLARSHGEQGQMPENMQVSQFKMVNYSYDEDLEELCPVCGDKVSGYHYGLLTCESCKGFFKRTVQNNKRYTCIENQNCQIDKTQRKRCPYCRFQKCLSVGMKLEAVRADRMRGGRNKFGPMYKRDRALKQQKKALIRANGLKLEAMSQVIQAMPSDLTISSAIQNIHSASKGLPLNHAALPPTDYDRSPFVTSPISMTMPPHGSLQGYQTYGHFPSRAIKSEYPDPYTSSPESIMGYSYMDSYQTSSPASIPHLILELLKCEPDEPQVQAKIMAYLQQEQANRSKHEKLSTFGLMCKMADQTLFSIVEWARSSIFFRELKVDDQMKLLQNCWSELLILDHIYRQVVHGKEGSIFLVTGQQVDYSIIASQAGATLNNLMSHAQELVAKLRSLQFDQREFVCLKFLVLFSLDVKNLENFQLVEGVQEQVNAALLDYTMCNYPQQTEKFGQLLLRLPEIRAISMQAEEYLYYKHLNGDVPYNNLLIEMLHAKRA
Sequence of Steroidogenic factor 1 (Q13285 whole entry): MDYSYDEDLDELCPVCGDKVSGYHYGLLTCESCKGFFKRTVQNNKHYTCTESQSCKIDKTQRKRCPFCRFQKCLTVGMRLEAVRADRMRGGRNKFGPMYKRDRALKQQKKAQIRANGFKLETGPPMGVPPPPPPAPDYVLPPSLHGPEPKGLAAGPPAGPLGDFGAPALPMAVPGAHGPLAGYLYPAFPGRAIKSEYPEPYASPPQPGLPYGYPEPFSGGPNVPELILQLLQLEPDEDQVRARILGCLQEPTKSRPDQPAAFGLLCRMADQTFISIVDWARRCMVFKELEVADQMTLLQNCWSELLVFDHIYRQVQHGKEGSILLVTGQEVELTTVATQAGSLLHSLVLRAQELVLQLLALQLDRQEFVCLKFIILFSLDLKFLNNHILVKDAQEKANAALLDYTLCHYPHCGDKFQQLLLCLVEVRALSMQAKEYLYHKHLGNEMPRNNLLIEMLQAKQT
Sequence of Beta-galactosidase (Q8VNN2 whole entry): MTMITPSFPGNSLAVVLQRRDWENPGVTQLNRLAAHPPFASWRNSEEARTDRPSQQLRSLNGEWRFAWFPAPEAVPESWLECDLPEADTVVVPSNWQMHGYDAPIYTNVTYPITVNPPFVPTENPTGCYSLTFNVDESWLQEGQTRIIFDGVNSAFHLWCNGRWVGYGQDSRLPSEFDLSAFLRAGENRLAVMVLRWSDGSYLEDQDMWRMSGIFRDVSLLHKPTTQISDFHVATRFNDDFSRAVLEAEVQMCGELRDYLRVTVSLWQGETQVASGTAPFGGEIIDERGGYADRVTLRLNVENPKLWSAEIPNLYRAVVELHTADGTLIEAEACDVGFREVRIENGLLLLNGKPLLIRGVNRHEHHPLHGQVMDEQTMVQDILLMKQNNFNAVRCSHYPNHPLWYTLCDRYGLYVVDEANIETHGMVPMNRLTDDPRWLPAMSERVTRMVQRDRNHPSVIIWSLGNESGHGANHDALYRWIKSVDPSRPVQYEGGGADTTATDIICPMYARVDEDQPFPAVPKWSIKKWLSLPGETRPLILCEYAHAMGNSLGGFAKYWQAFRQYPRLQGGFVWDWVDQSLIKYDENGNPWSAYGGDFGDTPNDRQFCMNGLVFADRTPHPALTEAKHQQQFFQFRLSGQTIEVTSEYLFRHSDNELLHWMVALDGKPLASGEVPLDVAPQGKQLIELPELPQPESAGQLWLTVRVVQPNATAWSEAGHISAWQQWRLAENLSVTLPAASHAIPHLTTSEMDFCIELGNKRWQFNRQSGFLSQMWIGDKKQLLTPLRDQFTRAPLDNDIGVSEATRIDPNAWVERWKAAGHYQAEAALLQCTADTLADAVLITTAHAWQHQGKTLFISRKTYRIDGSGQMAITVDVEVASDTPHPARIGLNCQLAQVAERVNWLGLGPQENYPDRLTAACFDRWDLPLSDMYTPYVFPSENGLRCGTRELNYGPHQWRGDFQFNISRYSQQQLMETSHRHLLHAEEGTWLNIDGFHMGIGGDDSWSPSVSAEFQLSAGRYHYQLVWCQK

## CCOCC(=O)Nc1ccc(S(=O)(=O)NCCc2ccccc2)cc1
[1]
  IC50: 35.9 µM (inactive)
[2]
  IC50: 18.4 µM (inactive)
Steroidogenic factor 1
  IC50: 5.7 µM (active)

## COc1cccc(N2CCN(C(=O)c3ccc(CSc4nc5cc[nH]cc-5n4)cc3)CC2)c1
[3]
  IC50: > 80 µM (inactive)
[4]
  IC50: 65 µM (inactive)
[5]
  IC50: 14.3 µM (active)

## O=C(NCc1nc2ccccc2[nH]1)C1=C[C@@H](C2CCCCC2)C[C@@H](OCc2ccc(CO)cc2)O1
[6]
  IC50: 2.85 µM (active)
[7]
  IC50: 38.9 µM (inactive)
INS1
  AC50: 13.1 µM (active)
[8]
  IC50: 6.42 µM (active)

## Cn1ccnc1Sc1cc(NCCCO)c([N+](=O)[O-])c2nonc12
[9]
  EC50: 13.2 µM (active)
[10]
  IC50: 5.86 µM (active)
[11]
  EC50: 11.8 µM (active)
Protein RecA
  EC50: 3.32 µM (active)
Beta Lactamase
  IC50: 18.2 µM (inactive)
[12]
  AC50: 8.37 µM (active)

## COc1cc(/C=C/c2sc3ccccc3[n+]2CCCS(=O)(=O)[O-])ccc1O
[13]
  EC50: > 32 µM (inactive)
[14]
  IC50: 19.1 µM (active)
Beta-galactosidase
  EC50: 14.1 µM (active)
[15]
  IC50: > 32 µM
[16]
  CC50: 100 µM (active)
[17]
  IC50: 20.5 µM (active)
Mu-type opioid receptor
  EC50: > 32 µM (inactive)
[18]
  IC50: > 32 µM (inactive)
Protein RecA
  EC50: 16.2 µM (active)
[12]
  AC50: > 380 µM (inactive)

## C[C@H](CO)N1C[C@H](C)[C@H](CN(C)S(=O)(=O)c2ccccc2)Oc2c(NC(=O)c3nc4ccccc4s3)cccc2C1=O
[19]
  AC50: 22.6 µM (active)
